# pEC50: −log10 of the molar value. Numbered stars: 1 amine (or outer) side, 2 acyl side, 3 side chain; on linkers, the order of the positions; unused ones are H or OH. Bridge positions count the residues as written; N and C are the ends. Square brackets hold non-standard residues; d marks the D form. Side chains are listed from the residue outwards. Peptide text beside a SMILES is read from it. * marks the point of attachment. C20 diacid = O=C(O)CCCCCCCCCCCCCCCCCCC(=O)*; γGlu = O=C(O)[C@H](CCC(=O)[*:2])N[*:1]; Hyp = O=C(O)[C@@H]1C[C@@H](O)CN1
# Target: T1, human amylin receptor (Homo sapiens, UniProt O60896+P30988)
# T1 construct: host or cells: CHO-K1/Ga15/AMY3 cells, further stably transfected with a CRE-luciferase plasmid
# T1 sequence (P30988 25-474): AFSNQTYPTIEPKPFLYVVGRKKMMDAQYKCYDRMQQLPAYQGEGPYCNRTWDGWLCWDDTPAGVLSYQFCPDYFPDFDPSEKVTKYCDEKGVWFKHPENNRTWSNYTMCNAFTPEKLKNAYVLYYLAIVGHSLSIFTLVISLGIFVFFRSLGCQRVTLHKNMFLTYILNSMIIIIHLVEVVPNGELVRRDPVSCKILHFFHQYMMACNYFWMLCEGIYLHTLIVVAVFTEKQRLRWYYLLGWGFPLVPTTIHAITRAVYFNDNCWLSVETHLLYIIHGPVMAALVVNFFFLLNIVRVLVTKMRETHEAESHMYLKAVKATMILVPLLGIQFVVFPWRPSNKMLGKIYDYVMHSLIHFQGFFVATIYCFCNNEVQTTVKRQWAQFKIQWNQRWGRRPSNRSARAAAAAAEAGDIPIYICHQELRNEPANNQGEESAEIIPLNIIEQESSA
# T1 sequence (O60896 24-148 partner): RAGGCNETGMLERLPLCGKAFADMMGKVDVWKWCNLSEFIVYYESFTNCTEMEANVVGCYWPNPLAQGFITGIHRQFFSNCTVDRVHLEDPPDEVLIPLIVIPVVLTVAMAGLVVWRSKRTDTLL
# Test: Luciferase assay of amylin derivatives in amylin receptor/CRE-luc CHO cell line
# Assay type: cell-based
# Details: CHO-K1/Ga15/AMY3 CRE-luc cells, 24 hours incubation, F12 medium containing 10% FBS; read-out: EC50
# Protocol: The experiment was intended to detect the activity or efficacy of the amylin derivatives on a human amylin receptor in vitro by luciferase assay.
# 50 μL of growth medium (F12 medium containing 10% FBS) was added into each well of a white 96-well plate, and the stably transfected amylin/CRE-lue CHO cells were inoculated into the white 96-well plate at a density of about 20,000 cells/well for activity determination.
row,pEC50,Structure (SMILES)
1,10.49,CC[C@H](C)[C@H](NC(=O)[C@@H]1CCCN1C(=O)CNC(=O)[C@H](Cc1ccccc1)NC(=O)[C@H](CC(N)=O)NC(=O)[C@H](CC(N)=O)NC(=O)[C@H](CO)NC(=O)[C@H](CO)NC(=O)[C@H](Cc1c[nH]cn1)NC(=O)[C@H](CCCNC(=N)N)NC(=O)[C@H](CC(C)C)NC(=O)[C@H](Cc1ccccc1)NC(=O)[C@H](CC(=O)O)NC(=O)[C@H](C)NC(=O)[C@H](CC(C)C)NC(=O)[C@H](CCCNC(=N)N)NC(=O)[C@H](CCC(N)=O)NC(=O)[C@@H](NC(=O)[C@H](C)NC(=O)[C@@H]1CSSC[C@H](NC(=O)[C@@H](N)CCCCNC(=O)CC[C@H](NC(=O)CCCCCCCCCCCCCCCCCCC(=O)O)C(=O)O)C(=O)N[C@@H](CC(N)=O)C(=O)N[C@@H]([C@@H](C)O)C(=O)N[C@@H](C)C(=O)N[C@@H]([C@@H](C)O)C(=O)N1)[C@@H](C)O)C(=O)N[C@@H](CC(C)C)C(=O)N1CCC[C@H]1C(=O)N1CCC[C@H]1C(=O)N[C@H](C(=O)N[C@@H](CC(N)=O)C(=O)N[C@H](C(=O)NCC(=O)N[C@@H](CO)C(=O)N[C@@H](CC(N)=O)C(=O)N[C@H](C(=O)N1C[C@H](O)C[C@H]1C(N)=O)[C@@H](C)O)C(C)C)[C@@H](C)O [PD068] (H-K([γGlu-C20 diacid])CNTATCATQRLADFLRHSSNNFGPILPPTNVGSNT[Hyp]-NH2; disulfide 2-7)
2,10.41,CC[C@H](C)[C@H](NC(=O)[C@@H]1CCCN1C(=O)CNC(=O)[C@H](CC(C)C)NC(=O)[C@H](CC(N)=O)NC(=O)[C@H](CC(N)=O)NC(=O)[C@H](CO)NC(=O)[C@H](CO)NC(=O)[C@H](Cc1c[nH]cn1)NC(=O)[C@H](CCCNC(=N)N)NC(=O)[C@H](CC(C)C)NC(=O)[C@H](Cc1ccccc1)NC(=O)[C@H](CC(=O)O)NC(=O)[C@H](C)NC(=O)[C@H](CC(C)C)NC(=O)[C@H](CCCNC(=N)N)NC(=O)[C@H](CCC(N)=O)NC(=O)[C@@H](NC(=O)[C@H](C)NC(=O)[C@@H]1CSSC[C@H](NC(=O)[C@H](CCCCN)NC(=O)CC[C@H](NC(=O)CCCCCCCCCCCCCCCCCCC(=O)O)C(=O)O)C(=O)N[C@@H](CC(N)=O)C(=O)N[C@@H]([C@@H](C)O)C(=O)N[C@@H](C)C(=O)N[C@@H]([C@@H](C)O)C(=O)N1)[C@@H](C)O)C(=O)N[C@@H](CC(C)C)C(=O)N1CCC[C@H]1C(=O)N1CCC[C@H]1C(=O)N[C@H](C(=O)N[C@@H](CC(N)=O)C(=O)N[C@H](C(=O)NCC(=O)N[C@@H](CO)C(=O)N[C@@H](CC(N)=O)C(=O)N[C@H](C(=O)N1C[C@H](O)C[C@H]1C(N)=O)[C@@H](C)O)C(C)C)[C@@H](C)O [PD069] ({C20 diacid-γGlu}-KCNTATCATQRLADFLRHSSNNLGPILPPTNVGSNT[Hyp]-NH2; disulfide 2-7)
3,10.55,CC[C@H](C)[C@H](NC(=O)[C@@H]1CCCN1C(=O)[C@H](CCCCN)NC(=O)[C@H](CC(C)C)NC(=O)[C@H](CC(N)=O)NC(=O)[C@H](CC(N)=O)NC(=O)[C@H](CO)NC(=O)[C@H](CO)NC(=O)[C@H](Cc1c[nH]cn1)NC(=O)[C@H](CCCNC(=N)N)NC(=O)[C@H](CC(C)C)NC(=O)[C@H](Cc1ccccc1)NC(=O)[C@H](CC(=O)O)NC(=O)[C@H](C)NC(=O)[C@H](CC(C)C)NC(=O)[C@H](CCCNC(=N)N)NC(=O)[C@H](CCC(N)=O)NC(=O)[C@@H](NC(=O)[C@H](C)NC(=O)[C@@H]1CSSC[C@H](NC(=O)[C@H](CCCCN)NC(=O)CC[C@H](NC(=O)CCCCCCCCCCCCCCCCCCC(=O)O)C(=O)O)C(=O)N[C@@H](CC(N)=O)C(=O)N[C@@H]([C@@H](C)O)C(=O)N[C@@H](C)C(=O)N[C@@H]([C@@H](C)O)C(=O)N1)[C@@H](C)O)C(=O)N[C@@H](CC(C)C)C(=O)N1CCC[C@H]1C(=O)N1CCC[C@H]1C(=O)N[C@H](C(=O)N[C@@H](CC(N)=O)C(=O)N[C@H](C(=O)NCC(=O)N[C@@H](CO)C(=O)N[C@@H](CC(N)=O)C(=O)N[C@H](C(=O)N1C[C@H](O)C[C@H]1C(N)=O)[C@@H](C)O)C(C)C)[C@@H](C)O [PD071] ({C20 diacid-γGlu}-KCNTATCATQRLADFLRHSSNNLKPILPPTNVGSNT[Hyp]-NH2; disulfide 2-7 (inferred))

# Source: patent US20260166128A1, “HUMAN AMYLIN ANALOG, AND DERIVATIVE THEREOF AND USE THEREOF” (priority 2022, published 2026)
